Data on 21 compounds can be found in PubChem BioAssay (NCI).

Experiment in all cases: NCI tumour cell line growth inhibition, 48 h
In experiment [1] the test system is A498 renal.
Experiment [2] concerns CCRF-CEM leukemia.
The subject of experiment [3] is HCC-2998 colon.
Experiment [4] deals with NCI-H460 lung.
Experiment [5] deals with NCI/ADR-RES ovarian.
Experiment [6] concerns OVCAR-3 ovarian.
Experiment [7] concerns OVCAR-5 ovarian.
Experiment [8] concerns OVCAR-8 ovarian.
In experiment [9] the test system is SN12C renal.
Experiment [10] relates to SNB-19 CNS.
In experiment [11] the test system is SW-620 colon.
Experiment [12] has as its system T-47D breast.
Experiment [13] deals with UACC-62 melanoma.
Experiment [14] concerns BT-549 breast.
The test system of experiment [15] is HL-60(TB) leukemia.
The test system of experiment [16] is HOP-92 NSCLC.

Structures are written as SMILES.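 Cells were grown in 96-well plates and exposed to each compound for 48 hours at five concentrations; endpoints were interpolated linearly between bracketing concentrations, or set to the highest concentration if not reached. TGI: concentration producing complete growth inhibition.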 Where a SMILES comes first, the peptide text is derived from it. [ ]: non-standard residue; d: D form. The star is where a group is joined. ξ: configuration not given here. NMeF = CN[C@@H](Cc1ccccc1)C(=O)O; ξNMeV = CNC(C(=O)O)C(C)C; Boc = CC(C)(C)OC(=O)*; OBn = c1ccc(CO*)cc1

For the compound `CSc1nc2c(N)ncnc2n1C`, the TGI in [1], in [2], in [3], in experiment [4], in [5] and in [6] was greater than 100 µM each time. Besides, the TGI in experiment [7], in experiment [8], in experiment [9], in experiment [10], in experiment [11] and in experiment [12] was greater than 100 µM each time. The TGI in experiment [13] is greater than 100 µM.

On to `Nc1nc(NNc2ccc(Cl)c(Cl)c2)cc(=O)[nH]1`, for which the TGI is greater than 100 µM in experiment [1]; 82.5 µM in experiment [14]; greater than 100 µM in experiment [2]; 44.7 µM in experiment [3]; 64.4 µM in experiment [15]; 79.8 µM in experiment [16]. In addition, the TGI in experiment [4] was greater than 100 µM; in experiment [5] it was greater than 100 µM; in experiment [6] it was 59.5 µM; in experiment [7] it was greater than 100 µM; in experiment [8] it was greater than 100 µM; in experiment [9] it was greater than 100 µM. Also, the results for the TGI in [10] and in experiment [11] were greater than 100 µM and 61.1 µM, respectively.

On to `CC(C)OP(=O)(OC(C)C)/C(=N/N)NNc1ccc([N+](=O)[O-])cc1`, for which the TGI in experiment [1], in experiment [2], in experiment [3], in experiment [15], in experiment [16] and in experiment [4] was greater than 100 µM each time. For the same compound, the TGI in experiment [6], in experiment [7], in experiment [8], in [9], in experiment [10] and in [11] was greater than 100 µM in each case. In experiment [13], this compound returned a TGI greater than 100 µM.

With `COc1ccc([N-]/C(=N\n2c(=O)c(C)nn(C)c2=S)N(c2ccc(OC)cc2)c2nn3c(=O)c(C)n[n+](C)c3s2)cc1`, the TGI in experiment [1], in experiment [2], in [15], in [16], in experiment [4] and in experiment [7] was greater than 100 µM in each case. Besides, the TGI in experiment [8], in experiment [9], in experiment [10], in experiment [11] and in [13] was greater than 100 µM each time.

Turning to `CCOc1ccc(N=Nc2ccc3oc(=O)c(C(=O)Nc4ccc(OC)cc4)cc3c2)cc1`, the TGI in [1] is greater than 100 µM; in [2], 25.4 µM; in experiment [3], 36.8 µM; in experiment [15] it was 20.4 µM; in experiment [6], 67 µM; in [7], greater than 100 µM. Moreover, the TGI is 67.6 µM in experiment [8]; greater than 100 µM in [9]; 46.6 µM in experiment [10]; greater than 100 µM in [11]; 93.1 µM in experiment [13].

Regarding `COc1cc(C(C)c2cc3c(cc2OCCCCOc2cc4c(cc2C(C)c2cc(OC)c(OC)c(OC)c2)OCO4)OCO3)cc(OC)c1OC` (configuration not stated), the TGI in experiment [2] is greater than 100 µM; in [3] it was greater than 100 µM; in experiment [15] it was greater than 100 µM; in [4], greater than 100 µM; in experiment [6], 58.2 µM; in [7], greater than 100 µM. The TGI in [8] was greater than 100 µM; in [9], greater than 100 µM; in experiment [10], greater than 100 µM; in experiment [11] it was 96 µM; in experiment [13], greater than 100 µM.

In the case of `CC(C)c1cccc(C(C)C)c1NC(=O)C(=O)C(C(=O)c1ccc2ccccc2c1)C1OC(=O)c2ccccc21` (configuration not stated), the TGI in experiment [1], in experiment [2], in experiment [3], in experiment [16], in experiment [4] and in [6] was greater than 100 µM throughout. For the same compound, the TGI in [7], in [9], in experiment [10], in experiment [11] and in [13] was greater than 100 µM in each case.

In the case of `O=C1c2nn(-c3ccccc3)nc2C(c2ccccc2)N1c1ccccc1` (configuration not stated), the TGI in experiment [2], in experiment [3], in experiment [4], in [6], in [7] and in experiment [8] was greater than 100 µM throughout. In addition, the TGI in [9], in experiment [10], in experiment [11] and in [13] was greater than 100 µM in each case.

With `O=C1C2CCC(C2)C12CC1(c3ccccc3)C(=O)c3ccccc3N1O2` (configuration not stated), the TGI in experiment [1], in [2], in experiment [3], in [15], in experiment [16] and in [8] was greater than 100 µM in each case. The TGI in [9], in experiment [10], in experiment [11] and in [13] was greater than 100 µM each time.

As for `COC(=O)N/N=C/c1oc(-c2ccccc2)c(-c2ccccc2)c1[N+](=O)[O-]`, the TGI in experiment [3], in experiment [15], in experiment [16], in [4], in experiment [6] and in experiment [7] was greater than 100 µM in each case. The TGI in experiment [8], in [9], in experiment [10], in [11] and in [13] was greater than 100 µM in each case.

For `Cc1nc2ccccc2c(=O)n1NC(=O)c1ccccc1O`, the TGI in experiment [1], in experiment [14], in experiment [2], in [3], in [15] and in experiment [16] was greater than 100 µM each time. In addition, the TGI in experiment [4], in experiment [6], in [7], in experiment [8], in [9] and in [10] was greater than 100 µM in each case. The TGI in [11] and in [13] was greater than 100 µM each time.

Take `N=C(N)n1[nH]c2c(c1=O)CCCC2`: the TGI in [1], in experiment [2], in experiment [3], in experiment [15], in experiment [4] and in experiment [5] was greater than 100 µM each time. Further, the TGI in experiment [6], in experiment [7], in [8], in experiment [9], in [10] and in experiment [11] was greater than 100 µM throughout. In addition, the TGI in experiment [12] and in experiment [13] was greater than 100 µM throughout.

Regarding `CC(C)C(C(=O)N1CCC[C@@H]1C(=O)OCc1ccccc1)N(C)C(=O)C(C(C)C)N(C)C(=O)[C@H](Cc1ccccc1)N(C)C(=O)[C@H](NC(=O)OC(C)(C)C)C(C)C` (some centres not stated) (Boc-[dV][NMeF][ξNMeV][ξNMeV][dP]-OBn), the TGI in [1], in [2], in experiment [3], in experiment [15], in experiment [16] and in experiment [4] was greater than 100 µM throughout. The TGI in experiment [6], in experiment [7], in experiment [8], in [9], in experiment [10] and in [11] was greater than 100 µM in each case. The TGI in [13] was greater than 100 µM.

In the case of `CC(C)C(=O)/C=C/c1ccc(Cl)cc1`, the TGI in experiment [2] came to 51.7 µM; in experiment [3], 31.9 µM; in experiment [15], 28.8 µM; in experiment [16], 31.6 µM; in experiment [4], 42.3 µM; in [6], 28 µM. The TGI in experiment [7] was 35.4 µM; in [9], 21.7 µM; in experiment [10], 28.1 µM; in experiment [11], 16.3 µM; in experiment [13], 36.4 µM.

For the compound `C[C@@H](NC(=O)OC1C=CC2(CC1)C(=O)N(C)c1ccccc12)c1cccc2ccccc12` (some centres not stated), the TGI in experiment [1] was greater than 25 µM; in experiment [2] it was greater than 25 µM; in experiment [3], greater than 25 µM; in [15], 14.7 µM; in experiment [16], greater than 25 µM; in [4], greater than 25 µM. The TGI in [5], in experiment [6], in experiment [7], in experiment [8], in experiment [9] and in experiment [10] was greater than 25 µM in each case. In addition, the TGI in experiment [11], in [12] and in [13] was greater than 25 µM throughout.

With `NC(=S)N1N=C2c3ccccc3CC[C@H]2[C@@H]1c1cccs1`, the TGI was greater than 100 µM in [1]; 81.5 µM in experiment [2]; greater than 100 µM in [3]; 42.8 µM in experiment [15]; greater than 100 µM in [16]; greater than 100 µM in [4]. Moreover, the TGI in experiment [6], in [7], in experiment [8], in experiment [9], in experiment [10] and in [11] was greater than 100 µM throughout. This compound also had a TGI in [13] greater than 100 µM.

On to `CC1(C)C2CCC3(OCCO3)C1C1OC12` (configuration not stated), for which the TGI in experiment [1], in experiment [2], in [15], in experiment [16], in experiment [4] and in experiment [6] was greater than 100 µM in each case. The TGI in [7], in experiment [8], in experiment [10] and in experiment [11] was greater than 100 µM in each case.

`O=C(/C=C(\Nc1ccccc1O)c1ccccc1)C(=O)NC12CC3CC(CC(C3)C1)C2`: the TGI in experiment [1], in [2], in experiment [3], in experiment [15], in experiment [4] and in [5] was greater than 10 µM throughout. Moreover, the TGI in experiment [6], in experiment [7], in [8], in experiment [9], in experiment [11] and in experiment [12] was greater than 10 µM in each case.

On to `O=c1cc(CC(O)(C(F)(F)Cl)C(F)(F)Cl)[nH]n1-c1ccccc1`, for which the TGI in [1], in experiment [2], in experiment [3], in [15], in experiment [16] and in experiment [4] was greater than 100 µM throughout. For the same compound, the TGI in [5], in experiment [7], in experiment [8], in experiment [9], in experiment [10] and in experiment [11] was greater than 100 µM throughout. Besides, the TGI in experiment [12] and in experiment [13] was greater than 100 µM in each case.

For the compound `COC(=O)C1C2C=CC(C2)N1S(=O)(=O)c1ccccc1` (configuration not stated), the TGI in [1], in experiment [16], in [4], in [5], in [6] and in experiment [7] was greater than 100 µM in each case. Moreover, the TGI in [8], in experiment [9], in experiment [10], in experiment [11], in experiment [12] and in experiment [13] was greater than 100 µM each time.

On to `COC(=O)C(Cc1ccccc1I)C1=CCC2(CC1)OCCO2` (configuration not stated), for which the TGI is greater than 100 µM in [1]; 81 µM in experiment [2]; greater than 100 µM in [3]; 41.5 µM in experiment [15]; 97.2 µM in experiment [16]; greater than 100 µM in experiment [4]. The TGI in [5] was 55.8 µM; in [6], 81.3 µM; in experiment [7], 54.5 µM; in experiment [8] it was greater than 100 µM; in experiment [10], 96.8 µM; in [11], greater than 100 µM. Further, the figures for the TGI in [12] and in experiment [13] were 39.7 µM and 59.3 µM, respectively.
